Laboratory results from PubChem BioAssay (NCI).
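Five concentrations, 48 hours, 96-well plates. GI50 = concentration required for 50% inhibition of growth. The concentration for full growth arrest is given as TGI.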

How the values were obtained:
Experiment in all cases: growth of human tumour cells (NCI), 48 h
[1] = test system: EKVX NSCLC
[2] = test system: OVCAR-5 ovarian
[3] = test system: NCI/ADR-RES ovarian
[4] = test system: MDA-N
[5] = test system: SN12C renal
[6] = test system: OVCAR-4 ovarian
[7] = test system: HOP-92 NSCLC
[8] = test system: BT-549 breast
[9] = test system: MCF7 breast
[10] = test system: U251 CNS
[11] = test system: SF-268 CNS
[12] = test system: IGROV1 ovarian
[13] = test system: OVCAR-8 ovarian
[14] = test system: SK-MEL-5 melanoma
[15] = test system: NCI-H23 lung
[16] = test system: MDA-MB-231 breast
[17] = test system: MDA-MB-435
[18] = test system: HL-60(TB) leukemia
[19] = test system: 786-0 renal
[20] = test system: A549 NSCLC
[21] = test system: M14 melanoma
[22] = test system: A498 renal
[23] = test system: CCRF-CEM leukemia
[24] = test system: T-47D breast
[25] = test system: CAKI-1 renal
[26] = test system: HS 578T breast
[27] = test system: RXF 393 renal
[28] = test system: SK-MEL-2 melanoma
[29] = test system: TK-10 renal
[30] = test system: ACHN renal
[31] = test system: LOX IMVI melanoma
[32] = test system: NCI-H460 lung
[33] = test system: UACC-257 melanoma
[34] = test system: SNB-75 CNS
[35] = test system: HCT-116 colon
[36] = test system: NCI-H522 lung
[37] = test system: K-562 leukemia
[38] = test system: RPMI-8226 leukemia
[39] = test system: PC-3 prostate
[40] = test system: SW-620 colon
[41] = test system: MALME-3M melanoma
[42] = test system: UACC-62 melanoma
[43] = test system: SK-OV-3 ovarian
[44] = test system: SR leukemia
[45] = test system: COLO 205 colon
[46] = test system: OVCAR-3 ovarian
[47] = test system: DU-145 prostate
[48] = test system: HCT-15 colon
[49] = test system: NCI-H226 lung
[50] = test system: SF-295 CNS
[51] = test system: HOP-62 NSCLC
[52] = test system: KM12 colon
[53] = test system: SNB-19 CNS
[54] = test system: UO-31 renal
[55] = test system: HCC-2998 colon
[56] = test system: SK-MEL-28 melanoma
[57] = test system: HT29 colon
[58] = test system: MOLT-4 leukemia
[59] = test system: SF-539 CNS

SMILES: CC(CC(=O)O)(CC(=O)O)c1ccccc1
- TGI [1]: > 100 µM
- TGI [2]: > 100 µM
- TGI [3]: > 100 µM
- TGI [4]: > 100 µM
- TGI [5]: > 100 µM
- TGI [6]: > 100 µM
- TGI [7]: > 100 µM
- TGI [8]: > 100 µM
- TGI [9]: > 100 µM
- TGI [10]: > 100 µM
- TGI [11]: > 100 µM
- TGI [12]: > 100 µM
- TGI [13]: > 100 µM
- TGI [14]: > 100 µM
- TGI [15]: > 100 µM
- TGI [16]: > 100 µM
- TGI [17]: > 100 µM
- TGI [18]: > 100 µM
- TGI [19]: > 100 µM
- TGI [20]: > 100 µM
- TGI [21]: > 100 µM
- TGI [22]: > 100 µM
- TGI [23]: > 100 µM
- TGI [24]: > 100 µM
- TGI [25]: > 100 µM
- TGI [26]: > 100 µM
- TGI [27]: > 100 µM
- TGI [28]: > 100 µM
- TGI [29]: > 100 µM
- TGI [30]: > 100 µM
- TGI [31]: > 100 µM
- TGI [32]: > 100 µM
- TGI [33]: > 100 µM
- TGI [34]: > 100 µM
- TGI [35]: > 100 µM
- TGI [36]: > 100 µM
- TGI [37]: > 100 µM
- TGI [38]: > 100 µM
- TGI [39]: > 100 µM
- TGI [40]: > 100 µM
- TGI [41]: > 100 µM
- TGI [42]: > 100 µM
- TGI [43]: > 100 µM
- TGI [44]: > 100 µM
- TGI [45]: > 100 µM
- TGI [46]: > 100 µM
- TGI [47]: > 100 µM
- TGI [48]: > 100 µM
- TGI [49]: > 100 µM
- TGI [50]: > 100 µM
- TGI [51]: > 100 µM
- TGI [52]: > 100 µM
- TGI [53]: > 100 µM
- TGI [54]: > 100 µM
- TGI [55]: > 100 µM
- TGI [56]: > 100 µM
- TGI [57]: > 100 µM

SMILES: CC(=N\O)/C(C)=N/O.CC(=N\O)/C(C)=N/O.CC(=N\O)/C(C)=N/O.CC(=N\O)/C(C)=N/O.[CH3-].[CH3-].[Co].[Co]
- GI50 [1]: 18.7 µM
- TGI [1]: 64.9 µM
- GI50 [2]: 28.8 µM
- TGI [2]: > 100 µM
- GI50 [3]: > 100 µM
- TGI [3]: > 100 µM
- GI50 [4]: 16.3 µM
- TGI [4]: > 100 µM
- GI50 [5]: 21.9 µM
- TGI [5]: > 100 µM
- GI50 [6]: 21.1 µM
- TGI [6]: 83.5 µM
- GI50 [7]: 26.2 µM
- TGI [7]: 71.3 µM
- GI50 [8]: 15.1 µM
- TGI [8]: 33.8 µM
- GI50 [9]: 16.9 µM
- TGI [9]: > 100 µM
- GI50 [10]: 11.7 µM
- TGI [10]: 24.1 µM
- GI50 [11]: 21.6 µM
- TGI [11]: 72.3 µM
- GI50 [12]: 28 µM
- TGI [12]: > 100 µM
- GI50 [13]: 27.2 µM
- TGI [13]: > 100 µM
- GI50 [14]: 15.3 µM
- TGI [14]: 28.6 µM
- GI50 [16]: 25.3 µM
- TGI [16]: 76.7 µM
- GI50 [17]: 15 µM
- TGI [17]: 39.9 µM
- GI50 [18]: 17.6 µM
- TGI [18]: 50.5 µM
- GI50 [19]: 18.4 µM
- TGI [19]: > 100 µM
- GI50 [58]: 23.8 µM
- TGI [58]: 72.4 µM
- GI50 [20]: 39.5 µM
- TGI [20]: > 100 µM
- GI50 [21]: 13 µM
- TGI [21]: 29.8 µM
- GI50 [22]: 32.1 µM
- TGI [22]: 77.1 µM
- GI50 [24]: 26.5 µM
- TGI [24]: > 100 µM
- GI50 [25]: 35.5 µM
- TGI [25]: > 100 µM
- GI50 [26]: 22 µM
- TGI [26]: 92.5 µM
- GI50 [27]: 16.7 µM
- TGI [27]: 39.9 µM
- GI50 [28]: 11.8 µM
- TGI [28]: 27.5 µM
- GI50 [29]: 28.5 µM
- TGI [29]: 88.8 µM
- GI50 [30]: 35.4 µM
- TGI [30]: > 100 µM
- GI50 [31]: 14.4 µM
- TGI [31]: 31.2 µM
- GI50 [32]: 14.6 µM
- TGI [32]: 40.7 µM
- GI50 [33]: 14.8 µM
- TGI [33]: 34.9 µM
- GI50 [34]: 15.5 µM
- TGI [34]: 38.7 µM
- GI50 [35]: 7.75 µM
- TGI [35]: > 100 µM
- GI50 [36]: 12.2 µM
- TGI [36]: 27.8 µM
- GI50 [37]: 20.4 µM
- TGI [37]: > 100 µM
- GI50 [38]: 12.8 µM
- TGI [38]: 44.2 µM
- GI50 [39]: 21.2 µM
- TGI [39]: 63.8 µM
- GI50 [40]: 29.4 µM
- TGI [40]: > 100 µM
- GI50 [41]: 16.1 µM
- TGI [41]: 30.7 µM
- GI50 [42]: 15.1 µM
- TGI [42]: 30.5 µM
- GI50 [43]: 34.5 µM
- TGI [43]: > 100 µM
- GI50 [44]: 16.2 µM
- TGI [44]: 50.1 µM
- GI50 [45]: 15 µM
- TGI [45]: 29.8 µM
- GI50 [46]: 15.9 µM
- TGI [46]: 78.8 µM
- GI50 [47]: 30.9 µM
- TGI [47]: > 100 µM
- GI50 [48]: 24.8 µM
- TGI [48]: > 100 µM
- GI50 [49]: 22.8 µM
- TGI [49]: 42.4 µM
- GI50 [50]: 22.8 µM
- TGI [50]: 76.5 µM
- GI50 [51]: 14.7 µM
- TGI [51]: 59.2 µM
- GI50 [52]: 27 µM
- TGI [52]: > 100 µM
- GI50 [53]: 17.6 µM
- TGI [53]: > 100 µM
- GI50 [54]: 19.3 µM
- TGI [54]: 48.5 µM
- GI50 [55]: 13.1 µM
- TGI [55]: 26.9 µM
- GI50 [56]: 30.2 µM
- TGI [56]: 90.9 µM
- GI50 [59]: 11.3 µM
- TGI [59]: 32.1 µM
- GI50 [57]: 23 µM
- TGI [57]: 82.5 µM
